pIC50: −log10 of the molar value.
How the values were obtained:
A375 cells = assay: A375 Cell Proliferation Assay (1); type: cell-based; settings: Homo sapiens, A-375
Method in brief: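 Resazurin fluorescence (excitation 540 nm, emission 600 nm, after a further 5-6 h) gave IC50s from triplicate compound dilution series.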

[1] = molecular target: A-Raf kinase (SEQ. ID No: 1) (Homo sapiens (Human), UniProt P10398, Y301D/Y302D); assay: Biochemical Assay for A-Raf (1); settings: Table J, assay version (1); read-out: ARAF (1) IC50
Method in brief: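 IC50 values were derived by four-parameter sigmoidal fitting of percent inhibition, calculated from reaction rates over the 4–5 h window. Absorbance at 340 nm was tracked for 6 h at 30 °C via coupled PK/LDH NADH depletion. Conditions: 1 mM ATP, 30.1 nM MEK substrate, 5.55 nM A-Raf (Y301D/Y302D), Tris pH 7.5, 1% DMSO.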

[2] = molecular target: B-Raf (V600E) (SEQ. ID NO: 4) kinase (Homo sapiens (Human), UniProt P15056, V600E); assay: Biochemical Assay for B-Raf (V600E) (1); settings: Table J, BRAF V600E, assay version (1); read-out: BRAF VE (1) IC50
Method in brief: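 Serially diluted compounds tested against 0.03 nM enzyme with 30.1 nM MEK substrate and 1 mM ATP (Tris pH 7.5, 15 mM MgCl2), ATP use coupled to NADH loss via PK/LDH. A340 monitored continuously 6 h, 30 °C; IC50 fitted (four-parameter) from the 3–4 h rate versus no-compound and known-inhibitor controls.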

H2405 cells = assay: H2405 Cell Proliferation Assay (1); type: cell-based; settings: Homo sapiens, NCI-H2405
Method in brief: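 Viability was read by resazurin reduction (ex 540 nm, em 600 nm; 5-6 h with 40 μL of 440 μM stock) after 67-72 h compound exposure at 37 °C.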

Chain of A-Raf kinase (SEQ. ID No: 1) (P10398 other isoform, or with tags, fused parts or gaps Y301D (already in the parent)/Y302D (already in the parent)): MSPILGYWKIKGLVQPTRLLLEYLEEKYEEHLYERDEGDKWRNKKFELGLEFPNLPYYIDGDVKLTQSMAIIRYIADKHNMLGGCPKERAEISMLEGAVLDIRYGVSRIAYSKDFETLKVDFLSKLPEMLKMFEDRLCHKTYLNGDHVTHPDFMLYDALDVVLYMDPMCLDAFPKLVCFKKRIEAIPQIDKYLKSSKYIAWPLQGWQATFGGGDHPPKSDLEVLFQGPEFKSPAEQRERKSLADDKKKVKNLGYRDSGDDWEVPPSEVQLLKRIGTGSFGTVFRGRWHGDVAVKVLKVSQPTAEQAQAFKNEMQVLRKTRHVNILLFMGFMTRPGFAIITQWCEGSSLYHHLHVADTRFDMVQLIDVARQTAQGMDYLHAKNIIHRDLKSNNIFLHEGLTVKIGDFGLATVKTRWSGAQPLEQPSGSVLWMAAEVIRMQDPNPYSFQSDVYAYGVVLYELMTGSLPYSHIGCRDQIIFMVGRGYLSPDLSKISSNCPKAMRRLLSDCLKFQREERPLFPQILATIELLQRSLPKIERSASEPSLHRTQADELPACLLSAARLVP
Chain of B-Raf (V600E) (SEQ. ID NO: 4) kinase (P15056 416-766 V600E): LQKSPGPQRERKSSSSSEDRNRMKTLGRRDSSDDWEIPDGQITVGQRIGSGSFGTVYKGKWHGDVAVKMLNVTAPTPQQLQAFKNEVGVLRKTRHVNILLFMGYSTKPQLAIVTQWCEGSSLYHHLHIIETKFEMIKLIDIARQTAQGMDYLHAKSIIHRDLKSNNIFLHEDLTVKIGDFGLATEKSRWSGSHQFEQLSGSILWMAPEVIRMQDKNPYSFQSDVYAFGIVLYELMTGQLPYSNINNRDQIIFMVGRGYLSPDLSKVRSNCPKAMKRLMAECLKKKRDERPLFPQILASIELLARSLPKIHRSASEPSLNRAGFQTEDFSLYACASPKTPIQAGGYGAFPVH

Row | SMILES | pIC50 (A375 cells) | pIC50 [1] | pIC50 [2] | pIC50 (H2405 cells)
1 | CC(=O)Nc1cc(-c2cc(-c3cc(NC(=O)c4ccnc(C(F)(F)F)c4)ccc3C)cc(OCCO)n2)ccn1 [Example 1, N-(3-(2′-acetamido-6-(2-hydroxyethoxy)-[2,4′-bipyridin]-4-yl)-4-methylphenyl)-2-(trifluoromethyl)isonicotinamide] | ≥ 7.00 | 5.00 to 6.00 | ≥ 7.00 | –
2 | CC(=O)Nc1cc(-c2cc(-c3cc(NC(=O)c4ccnc(C(F)(F)F)c4)c(F)cc3C)ccn2)ccn1 [Example 2] | 6.30 to 7.00 | 6.00 to 6.30 | ≥ 7.00 | –
3 | CC(=O)Nc1cc(-c2cc(-c3cc(NC(=O)c4cccc(C)c4)ccc3C)ccn2)ccn1 [Example 32] | 6.00 to 6.30 | 6.00 to 6.30 | ≥ 7.00 | –
4 | Cc1cc(F)c(NC(=O)c2ccnc(C(F)(F)F)c2)cc1-c1ccnc(-c2ccnc(NC=O)c2)c1 [Example 35] | 6.00 to 6.30 | 5.00 to 6.00 | ≥ 7.00 | –
5 | CC(=O)Nc1cc(-c2cc(-c3cc(NC(=O)c4ccnc(C(F)(F)F)c4)cnc3C)ccn2)ccn1 [Example 36] | 6.00 to 6.30 | 5.00 to 6.00 | ≥ 7.00 | –
6 | CC(=O)Nc1cc(-c2cc(-c3cc(NC(=O)c4cccc(C(F)(F)F)c4)cnc3C)ccn2)ccn1 [Example 37] | ≥ 7.00 | 5.00 to 6.00 | ≥ 7.00 | –
7 | Cc1ccc(NC(=O)c2ccnc(C(F)(F)F)c2)cc1-c1ccnc(-c2ccnc(NC(=O)CC#N)c2)c1 [Example 39, N-(3-(2′-(2-cyanoacetamido)-[2,4′-bipyridin]-4-yl)-4-methylphenyl)-2-(trifluoromethyl)isonicotinamide] | 6.00 to 6.30 | 5.00 to 6.00 | ≥ 7.00 | –
8 | CNC(=O)c1cc(-c2cc(-c3cc(NC(=O)c4ccnc(C)c4)ccc3C)ccn2)ccn1 [Example 40] | 5.00 to 6.00 | 5.00 to 6.00 | ≥ 7.00 | –
9 | CC(=O)Nc1cc(-c2cc(-c3cc(NC(=O)c4ccnc(C(F)(F)F)c4)ccc3C)nc(N(C)C)n2)ccn1 [Example 41, N-(3-(6-(2-acetamidopyridin-4-yl)-2-(dimethylamino)pyrimidin-4-yl)-4-methylphenyl)-2-(trifluoromethyl)isonicotinamide] | 6.30 to 7.00 | 5.00 to 6.00 | ≥ 7.00 | ≥ 7.00
10 | CNC(=O)c1cc(-c2cc(-c3cc(NC(=O)c4ccnc(C(F)(F)F)c4)cnc3C)ccn2)ccn1 [Example 42] | 5.00 to 6.00 | 5.00 to 6.00 | ≥ 7.00 | 6.00 to 6.30
11 | Cc1ccc(NC(=O)c2ccnc(C(C)(C)C#N)c2)cc1-c1cncc(-c2ccnc3c2CC(=O)N3)n1 [Example 43] | 6.00 to 6.30 | 5.00 to 6.00 | ≥ 7.00 | –
12 | Cc1ccc(NC(=O)c2ccnc(C(F)(F)F)c2)cc1-c1ccnc(-c2ccnc(NC=O)c2)c1 [Example 46] | 5.00 to 6.00 | 5.00 to 6.00 | ≥ 7.00 | –
13 | CNC(=O)c1cc(-c2cncc(-c3cc(NC(=O)c4ccnc(C(F)(F)F)c4)ccc3C)n2)ccn1 [Example 47] | 5.00 to 6.00 | 5.00 to 6.00 | ≥ 7.00 | –
14 | CNC(=O)c1cc(-c2cc(-c3cc(NC(=O)c4ccnc(C(F)F)c4)ccc3C)ccn2)ccn1 [Example 48] | 6.00 to 6.30 | 5.00 to 6.00 | ≥ 7.00 | 6.30 to 7.00
15 | Cc1cc(-c2cc(-c3cc(NC(=O)c4ccnc(C(C)(C)C#N)c4)ccc3C)ccn2)ccn1 [Example 49] | 6.00 to 6.30 | 5.00 to 6.00 | ≥ 7.00 | –
16 | CNC(=O)c1cc(-c2cc(-c3cc(NC(=O)c4ccnc(C(C)(C)C#N)c4)ccc3C)ccn2)ccn1 [Example 50] | ≥ 7.00 | 5.00 to 6.00 | ≥ 7.00 | ≥ 7.00
17 | CNC(=O)c1cc(-c2cc(-c3cc(NC(=O)c4cccc(C(F)(F)F)c4)cnc3C)ccn2)ccn1 [Example 52] | 6.30 to 7.00 | 5.00 to 6.00 | ≥ 7.00 | ≥ 7.00
18 | Cc1ccc(NC(=O)c2ccnc(C(F)(F)F)c2)cc1-c1ccnc(-c2ccnc(NC(=O)C3CC3)c2)c1 [Example 54] | 6.30 to 7.00 | 5.00 to 6.00 | ≥ 7.00 | ≥ 7.00
19 | Cc1ccc(NC(=O)c2ccnc(C(C)(C)C#N)c2)cc1-c1ccnc(-c2ccnc(N)c2)c1 [Example 56] | 6.30 to 7.00 | 5.00 to 6.00 | ≥ 7.00 | 6.00 to 6.30
20 | COCC(=O)Nc1cc(-c2cccc(-c3cc(NC(=O)c4ccnc(C(F)(F)F)c4)ccc3C)c2)ccn1 [Example 57] | 6.30 to 7.00 | 5.00 to 6.00 | ≥ 7.00 | –
21 | CC(=O)Nc1cc(-c2cc(-c3cc(NC(=O)c4ccnc(C)c4)ccc3C)ncn2)ccn1 [Example 59] | 5.00 to 6.00 | 5.00 to 6.00 | ≥ 7.00 | –
22 | CNC(=O)c1cc(-c2cc(-c3cc(NC(=O)c4ccnc(C)c4)ccc3C)ncn2)ccn1 [Example 60] | 5.00 to 6.00 | 5.00 to 6.00 | ≥ 7.00 | –

Row | SMILES | pIC50 (A375 cells) | pIC50 [1] | pIC50 [2] | pIC50 (H2405 cells)
23 | COCC(=O)Nc1cc(-c2cc(-c3cc(NC(=O)c4ccnc(C(C)(C)C#N)c4)ccc3C)ccn2)ccn1 [Example 61] | ≥ 7.00 | 5.00 to 6.00 | ≥ 7.00 | –
24 | Cc1ccc(NC(=O)c2ccnc(C(F)(F)F)c2)cc1-c1cccc(-c2ccnc(NC(=O)CC#N)c2)c1 [Example 62] | 6.30 to 7.00 | 6.30 to 7.00 | ≥ 7.00 | –
25 | Cc1ccc(NC(=O)c2ccnc(C(C)(C)C#N)c2)cc1-c1ccnc(-c2ccnc(NC(=O)CC#N)c2)c1 [Example 63] | 6.30 to 7.00 | 6.00 to 6.30 | ≥ 7.00 | –
26 | CC(=O)Nc1cc(-c2cccc(-c3cc(NC(=O)c4ccnc(C(F)(F)F)c4)cnc3C)c2)ccn1 [Example 64] | 6.30 to 7.00 | 5.00 to 6.00 | ≥ 7.00 | –
27 | CC(=O)Nc1cc(-c2cc(-c3cc(NC(=O)c4ccnc(C(F)(F)F)c4)ccc3F)cc(C)n2)ccn1 [Example 65] | 6.00 to 6.30 | 5.00 to 6.00 | ≥ 7.00 | –
28 | CCOc1ncc(-c2cc(NC(=O)c3ccnc(C(F)(F)F)c3)ccc2C)cc1-c1ccnc(NC(C)=O)c1 [Example 68] | ≥ 7.00 | 5.00 to 6.00 | ≥ 7.00 | 6.30 to 7.00
29 | CCOc1ncc(-c2cc(NC(=O)c3ccnc(C(F)(F)F)c3)ccc2C)cc1-c1ccnc(C(=O)NC)c1 [Example 69] | 6.30 to 7.00 | 5.00 to 6.00 | ≥ 7.00 | 6.30 to 7.00
30 | Cc1ncc(NC(=O)c2ccnc(C(F)(F)F)c2)cc1-c1cccc(-c2ccnc(NC(=O)C3CC3)c2)c1 [Example 70] | 6.30 to 7.00 | 6.00 to 6.30 | ≥ 7.00 | –
31 | Cc1cc(-c2cc(NC(=O)c3ccnc(C(F)(F)F)c3)ccc2F)cc(-c2ccnc(NC(=O)C3CC3)c2)n1 [Example 72] | 5.00 to 6.00 | 5.00 to 6.00 | ≥ 7.00 | –
32 | CNC(=O)c1cc(-c2cccc(-c3cc(NC(=O)c4ccnc(C(F)(F)F)c4)cnc3C)c2)ccn1 [Example 73] | 5.00 to 6.00 | 5.00 to 6.00 | ≥ 7.00 | –
33 | CC(=O)Nc1cc(-c2cc(-c3cc(NC(=O)c4ccnc(C(C)(C)C#N)c4)c(F)cc3C)ccn2)ccn1 [Example 75] | ≥ 7.00 | 5.00 to 6.00 | ≥ 7.00 | –
34 | Cc1cc(F)c(NC(=O)c2ccnc(C(C)(C)C#N)c2)cc1-c1ccnc(-c2ccnc(NC(=O)C3CC3)c2)c1 [Example 76] | ≥ 7.00 | 5.00 to 6.00 | ≥ 7.00 | –
35 | CNC(=O)c1cc(-c2nccc(-c3cc(NC(=O)c4ccnc(C(C)(C)C#N)c4)ccc3C)n2)ccn1 [Example 78] | ≥ 7.00 | 5.00 to 6.00 | ≥ 7.00 | –
36 | CC(=O)Nc1cc(-c2cccc(-c3cc(NC(=O)c4ccnc(C(C)(C)C#N)c4)ccc3C)c2)ncn1 [Example 79] | ≥ 7.00 | 5.00 to 6.00 | ≥ 7.00 | –
37 | CC(=O)Nc1cc(-c2cc(-c3cc(NC(=O)c4ccnc(C(F)(F)F)c4)ccc3C)nc(C)n2)ccn1 [Example 83] | 6.30 to 7.00 | 5.00 to 6.00 | ≥ 7.00 | –
38 | CC(=O)Nc1cc(-c2cc(-c3cc(NC(=O)c4ccnc(C(F)(F)F)c4)ccc3C)ncn2)ccn1 [Example 84] | 6.30 to 7.00 | 5.00 to 6.00 | ≥ 7.00 | –
39 | CC(=O)Nc1cc(-c2cncc(-c3cc(C(=O)Nc4cnn(C(C)C)c4)ccc3C)n2)ccn1 [Example 87] | 6.00 to 6.30 | 5.00 to 6.00 | ≥ 7.00 | –
40 | COCC(=O)Nc1cc(-c2nccc(-c3cc(NC(=O)c4ccnc(C(C)(C)C#N)c4)ccc3C)n2)ccn1 [Example 88] | ≥ 7.00 | 5.00 to 6.00 | ≥ 7.00 | –
41 | CC(=O)Nc1cc(-c2cc(-c3cc(NC(=O)c4ccnc(C(C)(C)C#N)c4)ccc3C)nc(C)n2)ccn1 [Example 89] | 6.30 to 7.00 | 5.00 to 6.00 | ≥ 7.00 | –
42 | Cc1ccc(NC(=O)c2ccnc(C(F)(F)F)c2)cc1-c1cncc(-c2ccnc(N)c2)n1 [Example 90] | 5.00 to 6.00 | 5.00 to 6.00 | ≥ 7.00 | –
43 | CC(=O)Nc1cc(-c2ccnc(-c3cc(NC(=O)c4ccnc(C(F)(F)F)c4)ccc3C)n2)ccn1 [Example 92] | 6.30 to 7.00 | 6.30 to 7.00 | ≥ 7.00 | –
